“Also recorded” adds a separate entry of the source. Marks after values point to notes of the source that are not given here.
What was measured:
[1] = system: patients with moderate to severe OSA; assay: Randomized, double-blind, placebo-controlled, crossover study with PYD in 12 patients with moderate to severe OSA (Example 1; PSG or PM); format: in vivo, human
Procedure: (§1) A randomized, double-blind, placebo-controlled, crossover study with PYD was undertaken in 12 patients with moderate to severe OSA. PYD was prepared by grinding pyridostigmine bromide pills manufactured by Sunve Pharmaceutical Co., LTD., Shanghai, China and recapsulated into hard shell capsules. PYD bromide at 30 mg, 60 mg, 120 mg, or placebo was orally administered to patients before sleep each night for a total of four continuous nights. Lights went out within 5 min after the administration. Blood was drawn at 0, 0.5, 1, 1.5, 2, 2.5, 3, 4 and 7 hours after the administration, and serum drug concentrations were determined by a LC-MS method after proper pre-treatment of the blood samples. Patients were monitored by either a PSG or a PM throughout the nights.

[2] = in vivo; cited from earlier work
[3] = Serum drug concentrations after oral PYD bromide in OSA patients (Example 1, LC-MS); format: in vivo, human
Procedure: as §1

diagnosed OSA patients = assay: Double-blind, randomized, cross-over, placebo-controlled study of efficacy and safety of PYD in 6 OSA patients (Example 2; PSG, questionnaires); format: in vivo, human; conditions: for Apnea/Hypopnea Index (AHI): 90 mg PYD bromide oral, mean of 6 patients; for Apnea/Hypopnea Index (AHI) / Apnea index (AI) / Hypopnea Index (HI): events per hour; for Apnea/Hypopnea Index (AHI) Reduction (%) / Hypopnea Index (HI) Reduction (%) / Apnea index (AI) Reduction (%) / Apnea/Hypopnea time Reduction (%) / Low Sat O2 Reduction (%) / Snore score Reduction (%): 90 mg vs placebo; for Apnea/Hypopnea time (%): percentage of total sleep time
Procedure: A double-blind, randomized, cross-over, placebo-controlled study was conducted to evaluate the efficacy and safety of PYD in 6 diagnosed OSA patients. The study consists of a one-day acclimatization period followed immediately by a 2-day double-blind treatment period when patients received either 90 mg PYD bromide in hard shell capsules or a matching placebo before sleep with a light snack. All patients were required to maintain in a supine position throughout of the night, as OSA is most severe when patients is on their back. In such a way, the results are expected to be more conservative in judging therapeutic effects of the drug. Lights were turned off within 5 min after the administration of the drug. The patients were monitored by a PSG. Apnea, hypopnea, snoring, blood O2 saturation were monitored, recorded, and scored. Sleep questionnaires were taken everyday after sleep to evaluate the impact on the sleep satisfaction and at evening to evaluate the quality of life during the daytime. Safety of the drug was also monitored and evaluated.

OSA patient = assay: Randomized, double-blind, dose escalating study in one OSA patient (Example 3; PSG); format: in vivo, human; conditions: FIG. 9
Procedure: A randomized, double-blind, dose escalating study was carried out in one patient to determine optimum PYD dose range for treating OSA. The patient was administered to with 30, 60, 90 mg PYD bromide or a placebo before sleep, and was monitored by PSG throughout the night. AHI, AI, and total apnea/hypopnea time were lower in the nights administered with 30 or 60 mg PYD bromide compared with the night with 90 mg PYD bromide (FIG. 9). The number of low O2 saturation events was lower with 60 mg PYD bromide compared with that of 90 mg PYD bromide. The results obtained from the clinical study described in Example 2 were reexamined to compare the therapeutic responses in the windows of 2-5 hours and 5-7 hours after sleep. […] Since serum PYD concentrations are expected to be lower within 5-7 hours comparing with those within 2-5 hours, the optimum dose range may be less than 90 mg of PYD bromide in a single dose.

[4] = one patient, three treatment nights (30, 60, 120 mg), 2-7 hours after lights off
[5] = 0-2 hr, P value >0.05, listed as Drug
[6] = 0-2 hr, P value >0.05, listed as PYD bromide
[7] = 2-7 hr, P value >0.05, listed as Drug
[8] = 2-7 hr, P value >0.05, listed as PYD bromide

CN(C)C(=O)Oc1ccc[n+](C)c1 [PYD, pyridostigmine]
serious adverse reactions ([1]; 30, 60, 120 mg oral, during the study): No serious adverse reaction was reported | serum drug concentrations at which patients particularly responded positively ([1]; 'particularly between'): 3 to 60 ng/mL | AHI and events of low O2 saturation ([1]; one patient, 0-2 hours after lights off): largely not changed | AHI and low O2 saturation, dose response ([1]; one patient, 30-60 mg compared with 120 mg PYD bromide, FIG. 2): lower AHI and less low O2 saturation | reduction of AHI compared with placebo [1, 4]: 11-23% | reduction of events of low blood O2 saturation compared with placebo [1, 4]: 10-18% | adverse reactions at the highest dose ([1]; patients treated with the highest dose): stomach upset and mild muscle cramp | serum drug concentrations at which patients responded positively ([1]; positive responses: reduction of AHI, AI, apnea/hypopnea time, snoring, increase in minimum oxygen saturation): 2 to 150 ng/mL | elimination half-life [2]: approximately 1.78 hours | serum drug concentrations in one patient ([3]; one patient monitored by PSG all four nights, 30, 60, 120 mg oral, FIG. 2): 3 to 45 ng/mL | time of peak serum drug concentration ([3]; oral PYD bromide 30, 60 or 120 mg before sleep, 12 OSA patients, FIG. 1): 3 to 4 h | Apnea/Hypopnea Index (AHI) (diagnosed OSA patients; 0-2 hr after sleep): 29.6 | Apnea/Hypopnea Index (AHI) (diagnosed OSA patients; 2-7 hr after sleep): 20.4 | Apnea/Hypopnea Index (AHI) Reduction (%) (diagnosed OSA patients; 0-2 hr after sleep, P value >0.05, listed as Drug): 13.1*** % | Apnea/Hypopnea Index (AHI) Reduction (%) (diagnosed OSA patients; 0-2 hr after sleep, P value >0.05, listed as PYD bromide): No statistically significant reduction | Hypopnea Index (HI) Reduction (%) (diagnosed OSA patients; 0-2 hr, P value >0.05): −17.7*** % | Apnea index (AI) Reduction (%) (diagnosed OSA patients; [5]): 26.7*** % | Apnea/Hypopnea time Reduction (%) (diagnosed OSA patients; [5]): 21.5*** % | Low Sat O2 Reduction (%) (diagnosed OSA patients; [5]): 6.6*** % | Snore score Reduction (%) (diagnosed OSA patients; [5]): 3.3*** % | Apnea index (AI) Reduction (%) (diagnosed OSA patients; [6]): No statistically significant reduction | Apnea/Hypopnea time Reduction (%) (diagnosed OSA patients; [6]): No statistically significant reduction | Low Sat O2 Reduction (%) (diagnosed OSA patients; [6]): No statistically significant reduction | Snore score Reduction (%) (diagnosed OSA patients; [6]): No statistically significant reduction | Apnea/Hypopnea Index (AHI) Reduction (%) (diagnosed OSA patients; 2-7 hr after sleep, P value <0.01 (0.0003), listed as Drug): 28.0* % | Apnea/Hypopnea Index (AHI) Reduction (%) (diagnosed OSA patients; 2-7 hr after sleep, P value <0.01 (0.0003), listed as PYD bromide): 28.0% | Apnea/Hypopnea time Reduction (%) (diagnosed OSA patients; 2-7 hr, 0.01 < P value < 0.05 (0.0133), listed as Drug): 36.4** % | Apnea/Hypopnea time Reduction (%) (diagnosed OSA patients; 2-7 hr, 0.01 < P value < 0.05 (0.0133), listed as PYD bromide): 36.4% | Apnea index (AI) Reduction (%) (diagnosed OSA patients; 2-7 hr, 0.01 < P value < 0.05 (0.0314), listed as Drug): 37.3** % | Apnea index (AI) Reduction (%) (diagnosed OSA patients; 2-7 hr, 0.01 < P value < 0.05 (0.0314), listed as PYD bromide): 37.3% | Snore score Reduction (%) (diagnosed OSA patients; 2-7 hr, P value <0.01 (0.0041), listed as Drug): 18.8* % | Snore score Reduction (%) (diagnosed OSA patients; 2-7 hr, P value <0.01 (0.0041), listed as PYD bromide): 18.8% | Hypopnea Index (HI) Reduction (%) (diagnosed OSA patients; [7]): 10.3*** % | Low Sat O2 Reduction (%) (diagnosed OSA patients; [7]): 12.5*** % | Hypopnea Index (HI) Reduction (%) (diagnosed OSA patients; [8]): 10.3% | Low Sat O2 Reduction (%) (diagnosed OSA patients; [8]): 12.5% | Low Sat O2 (events/hr) (diagnosed OSA patients; 90 mg, 0-2 hr after sleep): 35.1 events/hr | Snore score (events/hr) (diagnosed OSA patients; 90 mg, 0-2 hr after sleep): 528 events/hr | Apnea index (AI) (diagnosed OSA patients; 90 mg, 0-2 hr after sleep): 16.9 | Hypopnea Index (HI) (diagnosed OSA patients; 90 mg, 0-2 hr after sleep): 12.0 | Apnea/Hypopnea time (%) (diagnosed OSA patients; 90 mg, 0-2 hr): 18.7% | Low Sat O2 (events/hr) (diagnosed OSA patients; 90 mg, 2-7 hr after sleep): 24.9 events/hr | Snore score (events/hr) (diagnosed OSA patients; 90 mg, 2-7 hr after sleep): 485 events/hr | Apnea index (AI) (diagnosed OSA patients; 90 mg, 2-7 hr after sleep): 11.7 | Hypopnea Index (HI) (diagnosed OSA patients; 90 mg, 2-7 hr after sleep): 8.7 | Apnea/Hypopnea time (%) (diagnosed OSA patients; 90 mg, 2-7 hr): 14.5% | PSG scores (AHI, AI, total apnea/hypopnea time, low O2 saturation events) (diagnosed OSA patients; 90 mg, 5-7 hours compared with 2-5 hours after sleep, FIG. 10): statistically significantly lower | daytime quality of life reported by patients (diagnosed OSA patients; daytime following the drug treatment night): more energy, be more concentrated and be less sleepy | tolerability / serious adverse reactions (diagnosed OSA patients; single dose 90 mg PYD bromide): well tolerated; also recorded: no serious adverse reaction was reported | adverse reactions found (diagnosed OSA patients; single dose 90 mg, one patient): minor stomach upset | longer total sleep time in the treatment night (average) (diagnosed OSA patients; three patients, treatment night vs placebo night, FIG. 8): 33 min | noise of snoring (diagnosed OSA patients; treatment night compared with placebo night): quieter | sleep quality, patients' self evaluation questionnaire (diagnosed OSA patients; treatment night vs placebo night, FIG. 8): better sleep, more clear-headed, more energetic, and more satisfied sleep | number of low O2 saturation events (OSA patient; 60 mg compared with 90 mg PYD bromide): lower | AHI, AI, and total apnea/hypopnea time (OSA patient; nights with 30 or 60 mg compared with the night with 90 mg PYD bromide): lower
